ChEMBL document CHEMBL1122313, “Novel 17 alpha-chloro-17 beta-sulfinyl steroids as specific inhibitors of sebaceous gland activity: potential antiacne agents” (1983)

Legend:
Cricetinae gen. sp. [1] = experiment: Inhibition of lipid synthesis in hamster flank gland after administration of 0.1 mg.; assay type: functional
Cricetinae gen. sp. [2] = experiment: Inhibition of increase in flank organ weight after administration of 0.5 mg.; assay type: functional, Cricetulus griseus
Cricetinae gen. sp. [3] = experiment: Inhibition of increase in flank organ weight after administration of 1.0 mg.; assay type: functional, Cricetulus griseus
Cricetinae gen. sp. [4] = experiment: The compound was tested for the seminal vesicle weight after -5 mg sc administration for 14 days.; assay type: functional, Cricetulus griseus
Cricetinae gen. sp. [5] = experiment: The compound was tested for the treated flank organ weight after -0.375 ug topical application for 14 days.; assay type: functional, Cricetulus griseus
Cricetinae gen. sp. [6] = experiment: The compound was tested for the treated flank organ weight after -0.75 ug topical application for 14 days.; assay type: functional, Cricetulus griseus
Cricetinae gen. sp. [7] = experiment: The compound was tested for the treated flank organ weight after -1 mg sc administration for 14 days.; assay type: functional, Cricetulus griseus
Cricetinae gen. sp. [8] = experiment: The compound was tested for the treated flank organ weight after -5 mg sc administration for 14 days; assay type: functional, Cricetulus griseus
Cricetinae gen. sp. [9] = experiment: The compound was tested for the seminal vesicle weight after -0.375 ug topical application for 14 days.; assay type: functional, Cricetulus griseus
Cricetinae gen. sp. [10] = experiment: The compound was tested for the seminal vesicle weight after -0.75 ug topical application for 14 days.; assay type: functional, Cricetulus griseus
Cricetinae gen. sp. [11] = experiment: The compound was tested for the seminal vesicle weight after -1 mg sc administration for 14 days.; assay type: functional, Cricetulus griseus

[O-][S+](CCl)Cc1ccccc1 (stereo unspecified)
Inhibition (Cricetinae gen. sp. [1]): 14%

C[C@]12C=CC(=O)C=C1CCC1C2C(=O)C[C@@]2(C)C1CC[C@]2(Cl)[S+]([O-])CCc1ccccc1 (stereo partly specified)
Inhibition (Cricetinae gen. sp. [2]): 16%
Inhibition (Cricetinae gen. sp. [1]): 0%

C[C@]12C=CC(=O)C=C1CCC1C2CC[C@@]2(C)C1CC[C@]2(Cl)[S+]([O-])Cc1ccccc1 (stereo partly specified)
Inhibition (Cricetinae gen. sp. [1]): <40%

C[C@]12C=CC(=O)C=C1CCC1C2C(=O)C[C@@]2(C)C1CC[C@]2(Cl)[S+]([O-])Cc1ccccc1 (stereo partly specified)
Inhibition (Cricetinae gen. sp. [2]): 43%
Inhibition (Cricetinae gen. sp. [3]): 53%
Inhibition (Cricetinae gen. sp. [1]): <70%
Organ weight (Cricetinae gen. sp. [4]): 128 mg
Organ weight (Cricetinae gen. sp. [5]): <29.5 mg
Organ weight (Cricetinae gen. sp. [6]): <23.7 mg
Organ weight (Cricetinae gen. sp. [7]): <21.5 mg
Organ weight (Cricetinae gen. sp. [8]): <19.5 mg
Organ weight (Cricetinae gen. sp. [9]): 351 mg
Organ weight (Cricetinae gen. sp. [10]): 358 mg
Organ weight (Cricetinae gen. sp. [11]): 138 mg

C[C@]12C=CC(=O)C=C1CCC1C2C(=O)C[C@@]2(C)C1CC[C@H]2[S+]([O-])C(Cl)c1ccccc1 (stereo partly specified)
Inhibition (Cricetinae gen. sp. [1]): 0%

C[C@]12C=CC(=O)C=C1CCC1C2C(=O)C[C@@]2(C)C1CC[C@]2(Cl)S(=O)(=O)Cc1ccccc1 (stereo partly specified)
Inhibition (Cricetinae gen. sp. [1]): <31%

C[C@]12C=CC(=O)C=C1CCC1C2[C@@H](O)C[C@@]2(C)C1CC[C@]2(Cl)[S+]([O-])Cc1ccccc1 (stereo partly specified)
Inhibition (Cricetinae gen. sp. [1]): <20%

C[C@]12C=CC(=O)C=C1CCC1C2CC[C@@]2(C)C1CC[C@H]2SCc1ccccc1 (stereo partly specified)
Inhibition (Cricetinae gen. sp. [1]): 0%

C[C@]12C=CC(=O)C=C1CCC1C2C(=O)C[C@@]2(C)C1CC[C@H]2Sc1ccccc1 (stereo partly specified)
Inhibition (Cricetinae gen. sp. [1]): <25%

[O-][S+](Cc1ccccc1)[C@@H](Cl)c1ccccc1 (stereo partly specified)
Inhibition (Cricetinae gen. sp. [1]): 14%

C[C@]12C=CC(=O)C=C1CCC1C2C(=O)C[C@@]2(C)C1CC[C@H]2SCc1ccccc1 (stereo partly specified)
Inhibition (Cricetinae gen. sp. [1]): <29%

C[C@]12C=CC(=O)C=C1CCC1C2[C@@H](O)C[C@@]2(C)C1CC[C@H]2SCc1ccccc1 (stereo partly specified)
Inhibition (Cricetinae gen. sp. [1]): 0%

C[C@]12C=CC(=O)C=C1CCC1C2C(=O)C[C@@]2(C)C1CC[C@H]2[S+]([O-])Cc1ccccc1 (stereo partly specified)
Inhibition (Cricetinae gen. sp. [1]): 28%

CCCCC[S+]([O-])[C@@]1(Cl)CCC2C3CCC4=CC(=O)C=C[C@]4(C)C3C(=O)C[C@@]21C (stereo partly specified)
Inhibition (Cricetinae gen. sp. [1]): <29%

Cc1ccccc1C[S+]([O-])[C@@]1(Cl)CCC2C3CCC4=CC(=O)C=C[C@]4(C)C3C(=O)C[C@@]21C (stereo partly specified)
Inhibition (Cricetinae gen. sp. [1]): 31%

C[C@]12C=CC(=O)C=C1CCC1C2C(=O)C[C@@]2(C)C1CC[C@]2(Cl)[S+]([O-])Cc1ccc(Cl)cc1Cl (stereo partly specified)
Inhibition (Cricetinae gen. sp. [1]): 20%

C[C@]12C=CC(=O)C=C1CCC1C2C(=O)C[C@@]2(C)C1CC[C@]2(Cl)[S+]([O-])c1ccccc1 (stereo partly specified)
Inhibition (Cricetinae gen. sp. [1]): 20%

C[C@]1(O)CC[C@H]2[C@@H]3CCC4=CC(=O)CC[C@@H]4[C@H]3CC[C@@]21C [NORMETHANDRONE]
Organ weight (Cricetinae gen. sp. [4]): <94 mg
Organ weight (Cricetinae gen. sp. [5]): <15.6 mg
Organ weight (Cricetinae gen. sp. [6]): <13.7 mg
Organ weight (Cricetinae gen. sp. [7]): <22.5 mg
Organ weight (Cricetinae gen. sp. [8]): <22.1 mg
Organ weight (Cricetinae gen. sp. [9]): 316 mg
Organ weight (Cricetinae gen. sp. [10]): <283 mg
Organ weight (Cricetinae gen. sp. [11]): 121 mg
